Assay results from the NIST ThermoML archive (doi:10.1021/acs.jced.8b00786).
Numbers after ± are expanded uncertainties.

Details: Liquid; for viscosity: Capillary tube (Ostwald / Ubbelohde) method; for mass density: Vibrating tube method

CC(C)CCCC(C)CCCC(C)CCCCC(C)CCCC(C)CCCC(C)C (stereo not given) [2,6,10,15,19,23-hexamethyltetracosane]
Details | mass density [kg/m3] | viscosity [mPa·s]
313.15 K, 5700 kPa | 798.1 ± 2.4 | 16.52 ± 0.38
313.15 K, 13500 kPa | 804.3 ± 2.4 | 19.37 ± 0.44
313.15 K, 23500 kPa | 811.4 ± 2.5 | 23.38 ± 0.53
313.15 K, 45700 kPa | 822.6 ± 2.5 | 35.26 ± 0.82
313.15 K, 68000 kPa | 832.5 ± 2.6 | 52.85 ± 1.2
338.15 K, 7900 kPa | 783.2 ± 2.4 | 7.82 ± 0.18
338.15 K, 11000 kPa | 785.2 ± 2.4 | 8.05 ± 0.21
338.15 K, 22500 kPa | 793.3 ± 2.4 | 10.19 ± 0.26
338.15 K, 45600 kPa | 807.5 ± 2.5 | 14.4 ± 0.37
338.15 K, 60500 kPa | 814.6 ± 2.5 | 18.07 ± 0.41
338.15 K, 76300 kPa | 820.5 ± 2.6 | 22.98 ± 0.71
363.15 K, 10600 kPa | 769.9 ± 2.3 | 4.5 ± 0.11
363.15 K, 21500 kPa | 777.9 ± 2.4 | 5.38 ± 0.14
363.15 K, 42500 kPa | 791.1 ± 2.4 | 7.21 ± 0.19
363.15 K, 63700 kPa | 802.4 ± 2.5 | 9.47 ± 0.25
